According to patent publication US20110045101A1, “FUNGICIDAL SUBSTITUTED AZOLES” (E.I. Du Pont De Nemours and Company, priority 2009, published 2011):
Marks after values point to notes of the source that are not given here.

Legend:
Format in all cases: in vivo
[1] = test system: Septoria tritici; assay: Test G: wheat leaf blotch on wheat seedlings, sprayed the day before inoculation, visual disease rating; details: 100 = 100% disease control; for pest or weed control at 200 ppm: Zymoseptoria tritici, 504 h
Procedure, shortened: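 Compounds dissolved in acetone (3% of final volume), then suspended in 50/50 acetone/water with 250 ppm Trem® 014 and sprayed to run-off on seedlings at 200 ppm (≈500 g/ha) or 40 ppm where marked. Inoculation with spores followed next day; visual rating after 48 h saturated at 24° C plus 19 days at 20° C.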

[2] = test system: Botrytis cinerea; assay: Test C: tomato Botrytis on tomato seedlings, sprayed the day before inoculation, visual disease rating; details: 100 = 100% disease control; for pest or weed control at 200 ppm: Botrytis cinerea, 120 h
Procedure, shortened: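 Compounds were dissolved in acetone (3% of final volume), then suspended in 50/50 acetone/purified water containing 250 ppm polyhydric alcohol ester surfactant. Suspensions were sprayed to run-off on tomato seedlings at 200 ppm, equivalent to 500 g/ha, or at 40 ppm where marked.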

[3] = test system: Puccinia recondita f. sp. tritici; assay: Test I: wheat leaf rust on wheat seedlings, sprayed the day before inoculation, visual disease rating; details: 100 = 100% disease control; for pest or weed control at 200 ppm: Puccinia recondita, 168 h
Procedure, shortened: (§1)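 Compounds were dissolved in acetone (3% of final volume), then suspended in 50/50 acetone/purified water with 250 ppm Trem® 014 surfactant. Suspensions at 200 ppm (some at 40 ppm) were sprayed to run-off, 200 ppm being equivalent to 500 g/ha.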

[4] = test system: Septoria nodorum; assay: Test F: wheat glume blotch on wheat seedlings, sprayed the day before inoculation, visual disease rating; details: 100 = 100% disease control; for pest or weed control at 200 ppm: Parastagonospora nodorum, 264 h
Procedure, shortened: as §1

[5] = test system: Erysiphe graminis f. sp. tritici; assay: Test J: wheat powdery mildew on wheat seedlings, sprayed the day before inoculation, visual disease rating; details: 100 = 100% disease control; for pest or weed control at 200 ppm: Blumeria graminis, 168 h
Procedure, shortened: as §1

[6] = test system: Alternaria solani; assay: Test D: tomato early blight, sprayed the day before inoculation, visual disease rating; details: 100 = 100% disease control; for pest or weed control at 200 ppm: Alternaria solani, 168 h
Procedure, shortened: as §1

[7] = test system: Puccinia recondita f. sp. tritici; assay: Test H: wheat leaf rust, test suspension sprayed after inoculation of wheat seedlings, visual disease rating; details: 100 = 100% disease control; for pest or weed control at 200 ppm: Puccinia recondita, 96 h
Procedure, shortened: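 Wheat seedlings inoculated with P. recondita spores, held 24 h saturated at 20 °C, then 2 days in growth chamber at 20 °C; compound suspension (acetone/water with Trem 014) sprayed to run-off afterwards. Rated visually; 200 ppm (≈500 g/ha) unless marked *, which denotes 40 ppm.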

[8] = 200 ppm, 0 = no control relative to controls
[9] = 40 ppm (marked *), 0 = no control

Row | SMILES | Test G disease control rating [1, 8] | Test C disease control rating [2, 8] | Test I disease control rating [3, 8] | Test F disease control rating [4, 8] | Test J disease control rating [5, 8] | Test D disease control rating [6, 8] | Test H disease control rating [7, 8] | also measured
1 | COc1ccc(F)c(-c2c(Cl)nc(Br)n2-c2ccc(C#N)cc2)c1F [compound 596] | 98% | 94% | 74% | 0% | 97% | 73% | 0% | –
2 | CCOc1ccc(F)c(-c2c(Cl)nc(Br)n2-c2cccc(F)c2)c1F [compound 663] | 99% | 100% | 99% | 99% | 100% | 99% | 54% | –
3 | COc1cc(F)c(-c2c(Br)ncn2-c2ccc(C)nc2)c(F)c1 [compound 555] | 98% | 100% | 100% | 69% | 98% | 99% | 0% | –
4 | COc1ccc(F)c(-c2c(C)nc(Cl)n2-c2ccc(Cl)cc2)c1F [compound 526] | 99% | 100% | 100% | 100% | 100% | 100% | 0% | –
5 | COc1ccc(F)c(-c2c(Cl)nc(C)n2-c2ccc(Br)cc2)c1F [compound 582] | 97% | 100% | 99% | 99% | 100% | 100% | 15% | –
6 | COc1cc(F)c(-c2c(Br)nc(Cl)n2-c2ccc(OC)nc2)c(F)c1 [compound 710] | 98% | 100% | 100% | 100% | 98% | 100% | 99% | –
7 | Cc1nc(Cl)c(-c2ccc(Cl)cc2)n1Cc1cccc(Cl)c1 [compound 295] | – | – | – | – | – | – | – | Test G disease control rating ([1]; 200 ppm, 0 = no control): 94%; Test C disease control rating ([2]; 200 ppm, 0 = no control): 99%; Test I disease control rating ([3]; 200 ppm, 0 = no control): 80%; Test F disease control rating ([4]; 200 ppm, 0 = no control): 0%; Test J disease control rating ([5]; 200 ppm, 0 = no control): 0%; Test D disease control rating ([6]; 200 ppm, 0 = no control): 0%; Test H disease control rating ([7]; 200 ppm, 0 = no control): 0%
8 | O=C(O)Cc1nc(Br)c(-c2c(F)cccc2F)n1-c1ccc(Cl)cc1 [Compound 570, 4-bromo-1-(4-chlorophenyl)-5-(2,6-difluorophenyl)-1H-imidazole-2-acetic acid] | – | – | – | – | – | – | – | pest or weed control at 200 ppm [1, 8]: 97%; pest or weed control at 200 ppm [2, 8]: 0%; pest or weed control at 200 ppm [3, 8]: 13%; pest or weed control at 200 ppm [4, 8]: 0%; pest or weed control at 200 ppm [5, 8]: 69%; pest or weed control at 200 ppm [6, 8]: 0%; pest or weed control at 200 ppm [7, 8]: 0%
9 | Fc1cc(-n2c(Cl)nc(CCl)c2-c2cccnc2Cl)ccc1Cl [compound 359] | 35% | 98% | 80% | 0% | 0% | 0% | 0% | –
10 | COc1cc(Cl)c(-c2c(Cl)nc(Cl)n2-c2ccc(Cl)c(F)c2)c(Cl)c1 [compound 437] | 100% | 99% | 98% | 60% | 98% | 80% | 0% | –
11 | CN(C)c1ncn(-c2cccc(F)c2)c1-c1c(F)cc(F)cc1F [compound 363] | 53% | 99% | 0% | 0% | 0% | 0% | 9% | –
12 | Cc1nc(Cl)n(-c2ccc(Cl)c(F)c2)c1-c1c(F)ccc(F)c1Cl [compound 494] | – | – | – | – | – | – | – | Test G disease control rating ([1]; 40 ppm (marked *)): 89* %; Test C disease control rating ([2]; 40 ppm (marked *)): 89* %; Test I disease control rating ([3]; 40 ppm (marked *)): 99* %; Test F disease control rating ([4]; 40 ppm (marked *)): 0* %; Test J disease control rating ([5]; 40 ppm (marked *)): 99* %; Test D disease control rating ([6]; 40 ppm (marked *)): 99* %; Test H disease control rating ([7]; 40 ppm (marked *)): 0* %
13 | COc1ccc(F)c(-c2c(Cl)nc(Cl)n2-c2ccc(F)cc2)c1F [compound 390] | 95% | 100% | 100% | 99% | 100% | 100% | 18% | –
14 | Cc1nc(C)n(-c2ccc(F)cc2)c1-c1c(F)ccc(F)c1F [compound 417] | – | – | – | – | – | – | – | Test G disease control rating [1, 9]: 89* %; Test C disease control rating [2, 9]: 100* %; Test I disease control rating [3, 9]: 9* %; Test F disease control rating [4, 9]: 0* %; Test J disease control rating [5, 9]: 94* %; Test D disease control rating [6, 9]: 99* %; Test H disease control rating [7, 9]: 9* %
15 | Cc1ccc(-n2c(C)nc(Cl)c2-c2c(F)cc(O)cc2F)cc1 [Compound 624, 4-[4-chloro-2-methyl-1-(4-methylphenyl)-1H-imidazol-5-yl]-3,5-difluorophenol] | – | – | – | – | – | – | – | pest or weed control at 200 ppm [1, 8]: 94%; pest or weed control at 200 ppm [2, 8]: 99%; pest or weed control at 200 ppm [3, 8]: 99%; pest or weed control at 200 ppm [4, 8]: 0%; pest or weed control at 200 ppm [5, 8]: 90%; pest or weed control at 200 ppm [6, 8]: 64%; pest or weed control at 200 ppm [7, 8]: 0%
16 | Cc1nc(Cl)c(-c2ccc(Cl)c(F)c2)n1-c1ccc(F)cc1Cl [compound 421] | 100% | 100% | 100% | 0% | 100% | 98% | 0% | –
17 | COc1cc(F)c(-c2c(Cl)nc(Cl)n2-c2cccnc2Cl)c(F)c1 [compound 513] | 100% | 99% | 100% | 100% | 100% | 100% | 100% | –
18 | COc1ccc(Cl)c(-c2c(Cl)nc(Cl)n2-c2ccc(Cl)cc2)c1F [compound 518] | 98% | 100% | 98% | 99% | 100% | 99% | 0% | –
19 | CCc1cccc(-n2c(Br)nc(Cl)c2-c2c(F)ccc(OC)c2F)c1 [compound 398] | 96% | 100% | 79% | 79% | 100% | 80% | 0% | –
20 | COc1cc(F)c(-c2c(Cl)nc(Br)n2Cc2ccc(Cl)cc2)c(F)c1 [compound 283] | – | – | – | – | – | – | – | Test G disease control rating ([1]; 200 ppm, 0 = no control): 93%; Test C disease control rating ([2]; 200 ppm, 0 = no control): 100%; Test I disease control rating ([3]; 200 ppm, 0 = no control): 93%; Test F disease control rating ([4]; 200 ppm, 0 = no control): 0%; Test J disease control rating ([5]; 200 ppm, 0 = no control): 99%; Test D disease control rating ([6]; 200 ppm, 0 = no control): 98%; Test H disease control rating ([7]; 200 ppm, 0 = no control): 0%
